These results are taken from patent US20240226115A1, “AXL INHIBITOR COMPOUNDS” (ARCUS BIOSCIENCES, INC., priority 2021, published 2024).

Experiment [1] addresses T1, Axl (Homo sapiens, UniProt P30530).
T1 sequence (P30530 26-894): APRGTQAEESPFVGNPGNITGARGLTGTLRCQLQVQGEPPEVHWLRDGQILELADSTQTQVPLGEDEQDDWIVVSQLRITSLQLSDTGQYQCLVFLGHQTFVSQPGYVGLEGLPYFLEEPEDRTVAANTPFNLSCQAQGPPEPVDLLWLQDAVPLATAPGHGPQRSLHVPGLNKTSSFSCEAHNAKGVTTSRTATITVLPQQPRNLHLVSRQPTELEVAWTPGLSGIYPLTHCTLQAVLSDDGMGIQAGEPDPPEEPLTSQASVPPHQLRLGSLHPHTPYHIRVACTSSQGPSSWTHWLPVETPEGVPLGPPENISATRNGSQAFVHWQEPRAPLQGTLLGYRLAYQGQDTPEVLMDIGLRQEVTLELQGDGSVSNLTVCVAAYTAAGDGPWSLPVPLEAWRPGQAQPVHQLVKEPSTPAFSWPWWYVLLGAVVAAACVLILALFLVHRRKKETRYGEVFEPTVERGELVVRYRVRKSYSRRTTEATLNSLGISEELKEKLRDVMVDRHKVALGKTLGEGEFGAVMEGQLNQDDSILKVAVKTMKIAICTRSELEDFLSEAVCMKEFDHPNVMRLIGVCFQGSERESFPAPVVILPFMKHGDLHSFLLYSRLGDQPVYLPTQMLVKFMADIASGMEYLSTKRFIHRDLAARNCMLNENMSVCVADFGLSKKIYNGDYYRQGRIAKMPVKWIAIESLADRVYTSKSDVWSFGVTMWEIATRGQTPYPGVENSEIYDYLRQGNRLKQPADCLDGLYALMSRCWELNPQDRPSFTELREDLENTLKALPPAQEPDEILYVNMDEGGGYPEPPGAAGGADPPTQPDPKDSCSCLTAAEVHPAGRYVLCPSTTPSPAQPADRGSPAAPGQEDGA
Put plainly: Axl NanoBRET intracellular kinase assay (Cell Binding). Details: host or cells: HEK-293. Conditions: HEK-293 cells transfected with Axl-NanoLuc fusion vector; displacement of K-5 NanoBRET tracer. Put shortly: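 Intracellular binding measured as loss of BRET (610 nm/450 nm) when compounds displace 0.35 μM K-5 tracer from Axl-NanoLuc in transfected HEK-293 cells.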

The target of experiment [2] is T1, Axl. In words: HTRF KinEASE-TK biochemical potency, AXL. Conditions: 5 nM AXL, 700 μM ATP. Details: purchased Invitrogen. Put shortly:
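Enzyme preincubated with compound 1 h at RT; final 5 nM AXL or 1 nM TYRO3/MER, 800 nM TK substrate-biotin, 700 μM ATP, HEPES pH 7.4, MgCl2, 1% DMSO, 2 h at RT. HTRF 665/620 ratio read after streptavidin-XL665/cryptate antibody detection; percent activity relative to DMSO and pre-stopped controls.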

As to `C[C@@H]1CCCN1C1CCc2ccc(-c3cnc4[nH]nc(-c5ccc6c(c5)O[C@@H](C)CNC6=O)c4c3)cc2CC1` (stereo partly drawn) [Example 62, (2S)-2-Methyl-8-(5-{7-[(2R)-2-methylpyrrolidin-1-yl]-6,7,8,9-tetrahydro-5H-benzo[7]annulen-2-yl}-1H-pyrazolo[3,4-b]pyridin-3-yl)-2,3,4,5-tetrahydro-1,4-benzoxazepin-5-one], the IC50 on Axl [1] and against Axl [2] was below 100 nM each time.
Turning to `O=C1NCCOc2cc(-c3n[nH]c4ncc(-c5ccc6c(n5)CCC(N5CCCC5)CC6)cc34)ccc21` (stereo not shown) [Example 63, 8-{5-[7-(Pyrrolidin-1-yl)-5H,6H,7H,8H,9H-cyclohepta[b]pyridin-2-yl]-1H-pyrazolo[3,4-b]pyridin-3-yl}-2,3,4,5-tetrahydro-1,4-benzoxazepin-5-one], the results for the IC50 at Axl [1] and at Axl [2] were 100 to 1000 nM and below 100 nM, respectively.
For `Cc1cc2c(cc1-c1cnc3[nH]nc(-c4ccc5c(c4)OCCNC5=O)c3c1)CCC(N1CCC[C@H]1C)CC2` (stereo partly drawn) [Example 64, 8-(5-{3-Methyl-7-[(2R)-2-methylpyrrolidin-1-yl]-6,7,8,9-tetrahydro-5H-benzo[7]annulen-2-yl}-1H-pyrazolo[3,4-b]pyridin-3-yl)-2,3,4,5-tetrahydro-1,4-benzoxazepin-5-one] the same measures were below 100 nM and below 100 nM.
On to `C[C@@H]1CCCN1C1CCc2cc(-c3cnc4[nH]nc(-c5ccc6c(c5)OCCNC6=O)c4c3)cc(Cl)c2CC1` (stereo partly drawn) [Example 65, 8-(5-{4-Chloro-7-[(2R)-2-methylpyrrolidin-1-yl]-6,7,8,9-tetrahydro-5H-benzo[7]annulen-2-yl}-1H-pyrazolo[3,4-b]pyridin-3-yl)-2,3,4,5-tetrahydro-1,4-benzoxazepin-5-one], for which the IC50 at Axl [1] and against Axl [2] was below 100 nM throughout.
Take `C[C@@H]1CCCN1C1CCc2ccc(-c3cnc4[nH]nc(-c5ccc6c(c5)OCCNS6(=O)=O)c4c3)cc2CC1` (stereo partly drawn) [Example 66, 7-(5-{7-[(2R)-2-Methylpyrrolidin-1-yl]-6,7,8,9-tetrahydro-5H-benzo[7]annulen-2-yl}-1H-pyrazolo[3,4-b]pyridin-3-yl)-3,4-dihydro-2H-5,12,2-benzoxathiazepine-1,1-dione]: the IC50 at Axl [1] and on Axl [2] was below 100 nM throughout.

Broadly, the IC50 is the concentration needed to halve the response being measured. Low values mean higher potency, high ones lower potency.
